Measurements: US20100291089A1, “LIGAND OF REGULATING IMMUNE RESPONSE, AND USE THEREOF IN TREATING AN IMMUNE RESPONSE-RELATED DISEASE” (POSTECH ACADEMY-INDUSTRY FOUNDATION, priority 2005, published 2010)
Where no end group is shown, it is not given here.

Legend:
Type in all cases: cell-based
human neutrophils [1] = test: Neutrophil chemotaxis assay (multiwell chamber, checkerboard analysis); settings: 1 μM WRW4, 1 μM PACAP27
Experimental: Chemotaxis assays were performed using multiwell chambers (Neuroprobe Inc., Gaithersburg, Md.) (Bae, Y. S., H. Bae, Y. Kim, T. G. Lee, P. G. Suh, and S. H. Ryu. 2001. Blood 97:2854-2862). Prepared human neutrophils were suspended in RPMI 1640 medium at a 1×10^6 cells/ml, and 25 μl of this suspension was placed into the upper well of a chamber separated from the lower chamber, which was filled with testing solutions, by a […] filter (not coated with polyvinylpyrrolidone). After incubating for 2 hours at 37° C., non-migrated cells were removed by scraping, and cells that had migrated across the filter were dehydrated, fixed, and stained with hematoxylin (Sigma, St. Louis, Mo.). Stained cells in five randomly chosen high power fields (HPF) (400×) were then counted.
Neutrophil migration was analyzed for 2 hours across a polycarbonate membrane. Various concentrations of PACAP27 (SEQ ID NO:1) as shown in the following Table 1 were placed in the upper and lower compartments of the chambers. Data are presented as means±SE for migrated neutrophils cells per field counted in triplicate of two independent experiments.

human neutrophils [2] = test: Intracellular calcium mobilization (fura-2) in human neutrophils
Experimental: (§1) Neutrophils were stimulated with 1 μM of PACAP27 (SEQ ID NO:1), PACAP38 (SEQ ID NO:2), or VIP (SEQ ID NO:3), and calcium concentrations were measured for 10 min. In order to measure EKR phosphorylation, each peptide hormones was used with 1 μM concentrations for 5 min. For cAMP measurement, each peptide hormones was used with 1 μM concentrations for 10 min.
Intracellular calcium concentrations ([Ca^2+]i) were determined using Grynkiewicz's method with fura-2/AM, as described in “Grynkiewicz, G., M. Poenie, and R. Y. Tsien. 1985. […] J. Biol. Chem. 260:3440-3450”. Briefly, the cells prepared in Example 1.2 were incubated with 3 µM fura-2/AM at 37° C. for 50 minutes in fresh serum free RPMI 1640 medium with continuous stirring. The incubated cells (2×10^6) were aliquoted for each assay in Ca^2+-free Locke's solution (154 mM NaCl, 5.6 mM KCl, 1.2 mM MgCl2, 5 mM HEPES (pH 7.3), 10 mM glucose, and 0.2 mM EGTA). Fluorescence changes at 340 and 380 nm using a common emission wavelength of 500 nm were measured, and fluorescence ratios were converted to [Ca2+]i, as described in above Grynkiewicz, G. et al.

human neutrophils [3] = test: Western blot for ERK phosphorylation in human neutrophils; settings: pretreating with 1 μM WRW4
Experimental: as §1
ERK phosphorylation levels were measured by Western blotting, as described in above Bae, Y. S. et al. Cells (2×10^6/assay) were stimulated with the indicated concentration of agonist for 5 minutes, then washed with serum-free RPMI 1640 medium and lysed in lysis buffer {20 mM HEPES (pH 7.2), 10% glycerol, 150 mM NaCl, 1% Triton X-100, 1 mM PMSF, […], 50 mM NaF, and 1 mM Na3VO4}. Detergent-insoluble materials were pelleted by centrifugation (12,000×g, 15 minutes, 4° C.), and the soluble supernatant fraction was removed and either stored at −80° C. or used immediately. Laemmli sample buffer was added to these fractions and boiled (5 minutes). Proteins were separated by SDS-PAGE and transferred to nitrocellulose membranes (Schleicher and Schuell, BA85). Blocking was performed using TBS buffer (10 mM Tris/HCl, pH 7.5, 150 mM NaCl, and 0.05% Tween-20) containing 5% nonfat dry milk. Membranes were probed with a phospho-ERK specific primary antibody or ERK2 antibody for 3 hours at room temperature. […]

human neutrophils [4] = test: Intracellular cyclic AMP measurement in neutrophils; settings: 1 μM WRW4, 10 μM PACAP27 for 10 minutes
Experimental: Neutrophils were stimulated with 1 μM of PACAP27 (SEQ ID NO:1), PACAP38 (SEQ ID NO:2), or VIP (SEQ ID NO:3), and calcium concentrations were measured for 10 min. In order to measure EKR phosphorylation, each peptide hormones was used with 1 μM concentrations for 5 min. […]
Briefly, neutrophils were isolated and resuspended at 5×10^6 cells/ml in Hank's balanced salt solution (HBSS) for 5-10 minutes in a shaking incubator. The HBSS was then replaced with […] HBSS containing 500 µM isobutylmethylxanthine (IBMX; a cAMP phosphodiesterase inhibitor) for 5 minutes, and then cells were stimulated for 10 minutes. The reaction was terminated by adding 1 ml of ethanol, and cAMP levels were determined by using cAMP measuring kit (Neurunex, Pohang, Korea) according to the manufacturer's instructions.

human monocytes = test: Intracellular calcium signaling in human monocytes; settings: 1 μM WRW4
Excerpt: 1.3. Preparation of Neutrophils and Monocytes Peripheral blood was collected from healthy donors (male, 20˜30 years old, venous blood collection). Human neutrophils were isolated by dextran sedimentation followed by hypotonic erythrocyte lysis and lymphocyte separation medium gradient, as described in “Bae, Y. S., H. Bae, Y. Kim, T. G. Lee, P. G. Suh, and S. H. Ryu. 2001. Identification of novel chemoattractant peptides for human leukocytes. Blood 97:2854-2862”. Isolated human neutrophils were used promptly. Peripheral blood mononuclear cells (PBMCs) were separated on a Histopaque-1077 gradient (Bae, Y. S., H. Bae, Y. Kim, T. G. Lee, P. G. Suh, and S. H. Ryu. 2001. Identification of novel chemoattractant peptides for human leukocytes. Blood 97:2854-2862). […]
Intracellular calcium concentrations ([Ca^2+]i) were determined using Grynkiewicz's method with fura-2/AM, as described in “Grynkiewicz, G., M. Poenie, and R. Y. Tsien. […] Fluorescence changes at 340 and 380 nm using a common emission wavelength of 500 nm were measured, and fluorescence ratios were converted to [Ca2+]i, as described in above Grynkiewicz, G. et al.

human neutrophils [5] = test: FACS analysis of surface CD11b expression on neutrophils; settings: 1 μM WRW4, 10 μM PACAP27
Experimental: Purified neutrophils were incubated with indicated concentration of PACAP27 (SEQ ID NO:1) for 1 hour. Cells (2×10^5/assay) were washed with FACS buffer (PBS containing 1% BSA and 0.1% sodium azide), incubated with human AB type serum for 10 minutes on ice, and stained with PE-labeled human CD11b antibody (BD PharMingen, San Diego, Calif.). They were then analyzed using a FACSCalibur system (BD Biosciences, San Jose, Calif.), as described in “Harfi, I., S. D'Hondt, F. Corazza, and E. Sariban. 2004. J. Immunol. 173:4154-4163”.

## WRWWWW [WRW4]
Human neutrophils [1]
  inhibition of PACAP27-induced neutrophil chemotaxis: completely inhibited
Human neutrophils [2]; 1 M WRW4
  effect on PACAP27 priming of fMLP-induced calcium signaling: abolished
Human neutrophils [2]; 1 M WRW4, 10 nM fMLP
  effect on fMLP-induced calcium signaling: not affected
Human neutrophils [2]; human neutrophils
  concentration that completely inhibits PACAP27-induced neutrophil activation: ≥ 100 nM
Human neutrophils [2]; human neutrophils, pretreatment 30 seconds, 1 μM PACAP27
  inhibition of PACAP27-induced [Ca2+]i up-regulation: successfully inhibited
Human neutrophils [3]
  inhibition of PACAP27-induced ERK-phosphorylation: completely inhibited
Human neutrophils [4]
  inhibition of PACAP27-induced cAMP elevation: failed to inhibit
Human monocytes
  inhibition of PACAP27-induced calcium signaling in human monocytes: successfully inhibited
Human neutrophils [5]
  inhibition of PACAP27-induced CD11b up-regulation: inhibited completely
